{
  "source": "patent US6613956B1",
  "about": "“PI 3-kinase fusion mutants and uses thereof” (Chiron Corporation, priority 1996, dated 2003)",
  "key": {"Akt": {"molecular_target": "T1, Akt (Mus musculus, UniProt P31750)", "T1 construct": "made in house; host or cells: COS-7 cells (transient transfection, anti-HA 12CA5 immunoprecipitation on Protein A-Sepharose)", "test": "In vitro protein kinase assay of immobilized Akt preincubated with phospholipid vesicles, histone H2B as substrate", "format": "biochemical", "settings": "for increases Akt activity: summary statement for the three PI 3-kinase products; for stimulation of Akt: p110*-generated PI3,4P2 in PC vesicles, relative to unstimulated Akt"}, "Akt RC25": {"molecular_target": "T2, Akt RC25 (Homo sapiens, UniProt P31749, R25C)", "T2 construct": "made in house; host or cells: COS-7 cells (transient transfection, anti-HA 12CA5 immunoprecipitation on Protein A-Sepharose)", "T2 sequence (P31749 whole entry R25C, the tested form may be a part)": "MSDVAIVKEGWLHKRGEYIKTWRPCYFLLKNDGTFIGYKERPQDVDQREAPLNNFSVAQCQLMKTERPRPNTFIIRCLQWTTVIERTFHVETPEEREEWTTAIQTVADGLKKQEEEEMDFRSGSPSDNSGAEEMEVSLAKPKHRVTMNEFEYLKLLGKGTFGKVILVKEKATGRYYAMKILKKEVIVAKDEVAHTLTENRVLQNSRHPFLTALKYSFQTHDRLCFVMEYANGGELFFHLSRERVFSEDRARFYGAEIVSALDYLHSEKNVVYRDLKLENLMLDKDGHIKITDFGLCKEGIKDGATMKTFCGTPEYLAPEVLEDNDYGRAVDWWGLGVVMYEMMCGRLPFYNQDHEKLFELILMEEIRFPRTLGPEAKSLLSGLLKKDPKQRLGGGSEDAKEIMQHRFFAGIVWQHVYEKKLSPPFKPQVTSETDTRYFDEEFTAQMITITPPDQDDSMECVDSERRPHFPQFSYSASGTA", "test": "In vitro kinase assay of PH domain point mutant Akt RC25 with PI3,4P2 vesicles", "format": "biochemical", "settings": "vesicles generated with p110*", "text": "We determined that the PH domain at the Akt N-terminus is essential for PI3,4P2 mediated stimulation. It has previously been reported that the stimulation of the kinase activity of Akt by PI 3-kinase in vivo is dependent on the PH domain at its immediate N-terminus. We determined that PI3,4P2 mediates its stimulatory effect on Akt through its PH domain by introducing a point mutation in the PH domain of Akt (Akt RC25) which abrogates PI 3-kinase-mediated Akt activation in vivo. A kinase-deficient Akt, Akt KA179, was tested as an additional control. We incubated Akt, Akt RC25 and Akt KA179 proteins with PI3,4P2 in phospholipid vesicles using p110* as described above. […] The kinase-deficient Akt KA179 had no detectable enzymatic activity.\nThe assay for the in vitro protein kinase activity of Akt was conducted with immobilized Akt that was preincubated with or without mixed phospholipid vesicles (20 μl) for 10 min and subjected to an in vitro protein kinase assay using histone H2B (Boehringer Mannheim) as a substrate. […] The reactions were stopped by the addition of 8 μl Lammli-sample buffer and 22 μi of each reaction mixture were analyzed by 16% SDS-PAGE. The relative amounts of incorporated radioactivity were visualized by autoradiography and quantitated using a Molecular Imager System (BioRad)."}},
  "data": [
    {"substance": "PI 3-phosphate [PI3P]", "values": [
      {"measurement": "increases Akt activity", "setting": "Akt", "value": "not"},
      {"measurement": "stimulation of Akt kinase activity", "setting": "Akt; vesicles containing synthetic PI3P, any conditions", "value": "No stimulation"}
    ]},
    {"substance": "phosphatidylinositol 3,4 bisphosphate [PI3,4P2]", "values": [
      {"measurement": "Akt activation", "setting": "Akt; PE/PS vesicles", "value": "did not allow activation of Akt"},
      {"measurement": "stimulation of Akt", "setting": "Akt; 4 μM", "value": 9, "unit": "fold"},
      {"measurement": "stimulation of Akt", "setting": "Akt; average", "value": 3, "unit": "fold"},
      {"measurement": "Akt activation", "setting": "Akt; presence of PS in the PI3,4P2/PC vesicles", "value": "interfered with Akt activation"},
      {"measurement": "increases Akt activity", "setting": "Akt", "value": "increases Akt activity"},
      {"measurement": "Akt activation", "setting": "Akt; synthetic PI3,4P2 in either PE or PS vesicles", "value": "No activation"},
      {"measurement": "further increase in Akt activation", "setting": "Akt; synthetic dipalmitoyl derivatives of PI3,4P2, 260 nM to 1.3 μM", "value": "No further increase"},
      {"measurement": "increase in kinase activity of Akt", "setting": "Akt; synthetic dipalmitoylated PI3,4P2 in PC vesicles", "value": "approximately 2.5 fold"},
      {"measurement": "activation of Akt by PI3,4P2 containing vesicles", "setting": "Akt; wild-type Akt, vesicles generated with p110*", "value": "efficiently activated"},
      {"measurement": "activation of Akt RC25 by PI3,4P2 containing vesicles", "setting": "Akt RC25", "value": "not activated"}
    ]}
  ]
}
